In patent US20230339977A1, “SUBSTITUTED HETEROARYL COMPOUND, AND COMPOSITION AND APPLICATION THEREOF” (SUNSHINE LAKE PHARMA CO., LTD., priority 2020, published 2023):
Like-named read-outs stand apart in the source and are kept apart here.

Key:
P-STAT3 = assay: Effect of TYK2 inhibitor on P-STAT3 expression in PBMC induced by IFN-α (Table 3, P-STAT3 (h)); assay type: cell-based; settings: Homo sapiens; P-STAT3 by ELISA, PBMC stimulated with IFN-α 5000 U/mL
Protocol: Whole blood was collected from healthy subjects, anticoagulated with heparin sodium, and PBMC (human peripheral blood mononuclear cells) were extracted. PBMC were seeded in 96-well culture plates at a density of 1*106/well. The initial concentration of the positive drug BMS986165 was 1000 nM, after diluting 10 times, the positive drug BMS986165 was diluted 8 concentrations by 3 times; the concentration of the other tested compounds was 333 nM. Positive wells and negative wells were added with the same volume of DMSO as the compound, and the final concentration of DMSO was 0.5%. After the compound was added, the cells were incubated at 37° C. for 1 h, and then stimulated by the addition of IFN-α at a final concentration of 5000 U/mL. An equal volume of medium was added to the negative wells and incubated for 15 min. The cells were centrifuged to remove the supernatant, and lysed, and the P-STAT3 was measured according to the instructions of the ELISA kit, the absorbance was read at 450 nm, and the IC50 value or inhibition rate was calculated.
CTLL-2, P-STAT3 and TF-1 cells were seeded in a 96-well culture plate at a density of 20,000/well with 90 µL per well, and the blank well was an equal amount of complete medium. […]

[1] = Pharmacokinetic evaluation in rats after intravenous injection and oral administration; assay type: in vivo; settings: rat, plasma; for AUC(0-t): read-out: PK AUClast; for Cmax: read-out: PK Cmax; for half-life: read-out: PK T½ (converted)
Protocol: The analytical LC/MS/MS system includes an Agilent 1200 series vacuum degasser, a binary syringe pump, an orifice plate autosampler, a column oven, and an Agilent G6430 triple quadrupole mass spectrometer with an electrospray ionization (ESI) source.
Agilent XDB-C18, 2.1 × 30 mm, 3.5 µM column was used to analysis, 5 µL sample was injected. Analytical conditions: Mobile phases were 0.1% formic acid in water (A) and 0.1% formic acid in methanol (B). The flow rate was 0.4 mL/min.
In addition, Agilent 6330 series LC/MS/MS spectrometer was used for analysis, equipped with G1312A binary syringe pump, G1367A automatic sampler and G1314C UV detector; LC/MS/MS spectrometer used ESI radiation source. Optimum analysis was achieved using standards with appropriate cation model processing and MRM conversion for each analyte. A Capcell MP-C18 column, 100 × 4.6 mm I.D., 5 µM (Phenomenex, Torrance, California, USA) was used during the analysis. Mobile phase was 5 mM ammonium acetate, 0.1% methanol in water (A): 5 mM ammonium acetate, 0.1% methanol in acetonitrile (B) (70/30, v/v); flow rate was 0.6 mL/min; column temperature was maintained at room temperature; 20 µL of sample was injected.
The present invention evaluates the pharmacokinetic studies of the compounds of the present invention in mice, rats, dogs or monkeys. The compounds of the present invention were administered in the form of aqueous solution or 2% HPMC + 1% Tween-80 aqueous solution, 5% DMSO + 5% saline solution, 4% MC or capsule. For intravenous administration, animals were dosed at about 0.5, 0.6, 1 or 2 mg/kg. The oral doses (p.o.) were 5 or 10 mg/kg for rats and mice, and 10 mg/kg for dogs and monkeys. Bloods (0.3 mL) were taken at time points 0.25, 0.5, 1.0, 2.0, 3.0, 4.0, 6.0, 8.0, 12 and 24 h and centrifuged at 3,000 or 4,000 rpm for 10 min. Plasma solutions were collected and stored at -20° C. or -70° C. until LC/MS/MS analysis as described above. […] Table 2 is the experimental results of the pharmacokinetic characteristics of the compounds provided in the examples of the present invention in rats.

Compound: CC(=O)Nc1cc2c(-c3ccc4c(n3)C3(CCOC3)OC4)cn(C)c2cn1 (centres unmarked) [Example 2, N-(3-(4,5-Dihydro-2H,5′H-Spiro[Furan-3,7′-Furo[3,4-b]Pyridin]-2′-yl)-1-Methyl-1H-Pyrrolo[2,3-c]Pyridin-5-yl)Acetamide]
- IC50 (P-STAT3): 95.8 nM
- AUC(0-t) ([1]; IV 1 mg/kg): 1140 ng·h/mL
- Cmax ([1]; IV 1 mg/kg): 1010 ng/mL
- half-life ([1]; IV 1 mg/kg): 0.971 h
- AUC(0-t) ([1]; PO 5 mg/kg): 9430 ng·h/mL
- Cmax ([1]; PO 5 mg/kg): 1990 ng/mL
- half-life ([1]; PO 5 mg/kg): 2.71 h
- bioavailability ([1]; oral bioavailability, PO 5 mg/kg): 165%
